Measurements reported in patent US20200011856A1, “Method for Determining the Effectiveness of Treatment for the Prevention of Heartworm Disease” (priority 2017, published 2020).
“And” between values parts separate entries of the source, which are not always exact repeats. Equal entries are not always repeated.

How the values were obtained:
Dirofilaria immitis = assay: D. immitis L3 infection of NSG mice (FR3 Missouri strain or strain not stated), treatment, recovery and count of worms at necropsy; assay type: in vivo; conditions: in vivo
[1] = system: Dirofilaria immitis (Merial worms, UC strain); assay: D. immitis L3 infection of NSG mice with Merial worms / UC strain, treatment, recovery and count of worms; assay type: in vivo; conditions: in vivo, 3 mg/kg
[2] = system: Strongyloides stercoralis; assay: Strongyloides stercoralis L3 infection of NSG mice with or without MPA, treatment, counts of adult worms, L1 and L3; conditions: 6 weeks post-injection; for Adult S. stercoralis recovery counts (individual mice) / Adult S. stercoralis recovery counts, mean / L1 S. stercoralis recovery counts (individual mice) / L1 S. stercoralis recovery counts, mean / L3 S. stercoralis recovery counts (individual mice) / L3 S. stercoralis recovery counts, mean: 5000 L3 s.c.
Text: NSG mice infected by subcutaneous injection with 5000 S. stercoralis L3 larvae, either with or without MPA. […] Adult worms, L1 larvae, or L3 larvae were counted in the mice at 6 weeks post-injection.

Haemonchus contortus = Haemonchus contortus L3 infection of control and MPA-treated NSG mice, worm and egg recovery; assay type: in vivo
[3] = IVM Control: 3 mg/kg IVM days 1, 15, 30, without MPA
[4] = IVM/MPA: 3 mg/kg IVM days 1, 15, 30, with MPA (hyperinfection)

## CC[C@H](C)[C@H]1O[C@]2(CC[C@@H]1C)C[C@@H]1C[C@@H](C/C=C(\C)[C@@H](O[C@H]3C[C@H](OC)[C@@H](O[C@H]4C[C@H](OC)[C@@H](O)[C@H](C)O4)[C@H](C)O3)[C@@H](C)/C=C/C=C3\CO[C@@H]4[C@H](O)C(C)=C[C@@H](C(=O)O1)[C@]34O)O2 [IVM, ivermectin]
Dirofilaria immitis
  % Rec, Mean: 1% and 4% and 2%
  Mean % Rec: 6%
  Mean Survival: 3
Dirofilaria immitis; po, 3 mg/kg
  HW parasite load (normalized percent larva recovery, FIG. 2): significantly reduced HW parasite load
[1]
  % Red: 47%
  Mean % Rec: 18%
  Mean Survival: 9
[2]; [3]
  Adult S. stercoralis recovery counts (individual mice): 0
  Adult S. stercoralis recovery counts, mean: 0
  L1 S. stercoralis recovery counts (individual mice): 0
  L1 S. stercoralis recovery counts, mean: 0
  L3 S. stercoralis recovery counts (individual mice): 6 and 9 and 26 and 210 and 2
  L3 S. stercoralis recovery counts, mean: 51
[2]; [4]
  Adult S. stercoralis recovery counts (individual mice): 0
  Adult S. stercoralis recovery counts, mean: 0
  L1 S. stercoralis recovery counts (individual mice): 0
  L1 S. stercoralis recovery counts, mean: 0
  L3 S. stercoralis recovery counts (individual mice): 19 and 24 and 4 and 13 and 25 and 16 and 40 and 38
  L3 S. stercoralis recovery counts, mean: 22
[2]; NSG mice, 5000 S. stercoralis L3 SC, with or without MPA, 3 mg/kg on days 1, 15, and 30
  Circulating L3: reduced the circulating L3

## CC(=O)OCC(=O)[C@@]1(O)CC[C@H]2[C@@H]3C[C@H](C)C4=CC(=O)C=C[C@]4(C)[C@H]3[C@@H](O)C[C@@]21C [MPA, methylprednisolone acetate]
Haemonchus contortus; MPA-treated NSG mice, 500 Hc L3 oral gavage, 14 Days PI
  Hc Recovery, Average: 10.5
Haemonchus contortus; MPA-treated NSG mice, 500 Hc L3 oral gavage, 21 Days PI
  Hc Recovery, Average: 2
Haemonchus contortus; MPA-treated NSG mice, 500 Hc L3 oral gavage, 28 Days PI
  Hc Recovery, Average: 0
Haemonchus contortus; MPA-treated NSG mice, 500 Hc L3 oral gavage, 56 Days PI
  Hc Recovery, Average: 0
Haemonchus contortus; MPA-treated NSG mice, 500 Hc L3 oral gavage, 7 days PI
  Hc Recovery, Average: 19.5
Haemonchus contortus; MPA-treated NSG mice, 1000 Hc L3 oral gavage, 14 Days PI
  Hc Recovery (individual mice): 15 and 1
Haemonchus contortus; MPA-treated NSG mice, 1000 Hc L3 oral gavage, 21 Days PI
  Hc Recovery (individual mice): 15 and 20
Haemonchus contortus; MPA-treated NSG mice, 1000 Hc L3 oral gavage, 28 Days PI
  Hc Recovery (individual mice): 0 and 1
Haemonchus contortus; MPA-treated NSG mice, 1000 Hc L3 oral gavage, 56 Days PI
  Hc Recovery (individual mice): 0
Haemonchus contortus; MPA-treated NSG mice, 1000 Hc L3 oral gavage, 7 days PI
  Hc Recovery, Average: 36
Haemonchus contortus; in vivo
  # Eggs Found: 2
Haemonchus contortus; in vivo, po
  Hc Recovery (individual mice): 19 and 2 and 0 and 36 and 3 and 24 and 48
[2]; MPA only (hyperinfection)
  Adult S. stercoralis recovery counts (individual mice): 888 and 235 and 34 and 437 and 581 and 447
  Adult S. stercoralis recovery counts, mean: 437
  L1 S. stercoralis recovery counts (individual mice): 86 and 24 and 8456 and 9181 and 3464 and 670
  L1 S. stercoralis recovery counts, mean: 3647
  L3 S. stercoralis recovery counts (individual mice): 275 and 31 and 2760 and 1766 and 632 and 1015
  L3 S. stercoralis recovery counts, mean: 1080
